This note sets out measurements from US20040266880A1, “Antipruritics” (priority 2002, published 2004).

Holding throughout (assay type): in vivo
Experiment [1] concerns NC/Nga mice manifesting atopic dermatitis. In words: Test Example 2: effect on the spontaneous, itch-evoked scratching behavior of NC mice (percent itch suppression). To be noted: for % Inhibition (percent itch suppression): total 24-hr scratching counts before vs after, N = 8. Here is the method:
Twenty-week-old NC/Nga mice each weighing about 30 g and manifesting atopic dermatitis were purchased from SLC and subjected to the following experiment. A magnet was buried in both hind paws of each mouse and by detecting its magnetism, the movement of the paws was measured with an itch measuring system (product of Neuroscience). Among the scratching actions, those lasting 1.5 seconds or longer were considered itch-evoked and their number was counted continuously. […] Prostaglandin E2 (PGE2; Cayman Chemical), prostaglandin D2 (PGD2; Cayman Chemical), limaprost (synthetic), sulprostone (synthetic) and beraprost (synthetic) were used as drugs according to the present invention. The subsequent 24-hr itch-evoked scratching behavior was measured and the number of itch-evoked scratchings after drug application was compared with the initial count. The experimental data was processed to calculate the percent itch suppression on the basis of the total 24-hr itch-evoked scratching counts before and after drug application (Table 2). [formula]
For significance testing, the itch-evoked scratching counts that were obtained before and after drug application from individual animals in each group treated with a specific concentration of drug were processed by a paired t-test. Differences with a significance level of 0.5% or less were determined as “significant.”
The same test was repeated using 100% ethanol as a control and, as comparative drugs, dexamethasone (a steroid; Wako Pure Chemical Industries, Ltd.), tacrolimus (FK-506, an immunosuppressive; Fujisawa Pharmaceutical Co., Ltd.) and chlorpheniramine maleate (an antihistamine; Kongo Chemical Co., Ltd.) at the concentrations shown in Table 2 below, provided that chlorpheniramine maleate was administered orally.

The subject of experiment [2] is dermatitis manifesting NC mice. In words: Test Example 3: effect on dermatitis manifesting NC mouse models (dermatitis score). To be noted: 0.01% in 100% ethanol, 200 μl on dorsal back seven times a week for 4 weeks; FIGS. 1 and 2; P<0.05. Here is the method:
By suitably modifying a method known to the skilled artisan (Jpn. J. Pharmacol. 76, 175-183 (1998) Jun Hiroi, et al. Effects of Tacrolimus Hydrate (FK-506) Ointment on Spontaneous Dermatitis in NC/Nga Mice), the following test was conducted in order to confirm the antipruritic effect of prostaglandins. (Method) Animals: Four-week old SPF NC mice (male) were purchased from Japan SLC; right after their arrival, the SPF NC mice were kept together with dermatitis manifesting male NC mice (older than 20 weeks) for 2 weeks under the following conditions so as to induce itch-evoked scratching behavior. A group of mice manifesting dermatitis and another group of mice not manifesting dermatitis, each consisting of four animals, were allowed to cohabit in a sawdust cage (34×17×39 cm) and kept in an animal house set at room temperature (23±3° C.) and at a humidity of 55±15% under illumination for 12 hours (from 7:00 am to […]). After 2-wk cohabitation, the purchased mice were taken out of the cage and transferred into another cage, where a group of 8 animals were further kept for 14 weeks until the test. […] The mean value ± standard deviation was calculated from the dermatitis scores for each group, and then statistically processed by t-test to determine statistical significance between each drug administration group and ethanol-treated group.

Experiment [3] has as its system NC/Nga mice manifesting atopic dermatitis. In words: Test Example 1: effect on the spontaneous, itch-evoked scratching behavior of NC mice. To be noted: for % Occurrence of scratching behavior: 0.1% in 100% ethanol, 0.2 ml/mouse on dorsal skin, count before drug application set to 100%, scratchings 1.5 seconds or longer, N = 6. Here is the method: Twenty-week-old NC/Nga mice each weighing about 30 g and manifesting atopic dermatitis were purchased from SLC and subjected to the following experiment. A magnet was buried in both hind paws of each mouse and by detecting its magnetism, the movement of the paws was measured with an itch measuring system (product of Neuroscience). Among the scratching actions, those lasting 1.5 seconds or longer were considered itch-evoked and their number was counted continuously. […] Since there was a wide range of variation among individual animals, the experimental data was scored assuming that the initial count before drug application was set to 100%. The same test was repeated using 100% ethanol as a control and dexamethasone (a steroid; Wako Pure Chemical Industries, Ltd.) and tacrolimus (an immunosuppressive; Fujisawa Pharmaceutical Co., Ltd.) as comparative drugs.

Experiment [4] shares this test system. In words: Case 2: effects of external use of tacrolimus and dexamethasone on spontaneous itch-evoked scratching behavior in NC/Nga mice. To be noted: 0.1% in 100% ethanol, 200 μl applied onto head and dorsal skin; paw movements lasting 1.5 seconds or longer; before application: tacrolimus group 600 ± 64, dexamethasone group 567 ± 77. Here is the method:
Experimental animals used were 14-week-old NC/Nga male mice, each weighing about 30 g and manifesting atopic dermatitis, and were divided into groups of 6 mice each.
To perform this test, a commercially available itch measuring system (product of Neuroscience) was used. After magnets for scratch measurement were inserted into both hind paws of each of the above animals, the animals were individually placed in a measurement cage and measured for the number of scratchings over 24 hours (the value before drug application). Then, 200 μl each of 0.1% tacrolimus (Fujisawa Pharmaceutical Co., Ltd.) and dexamethasone (Wako Pure Chemical Industries, Ltd.) dissolved in 100% ethanol were applied onto the head and dorsal skin, followed by recording again the number of scratchings over 24 hours (the value after drug application). The control group received 100% ethanol alone. The results obtained were processed to score itch-evoked scratching behavior, assuming that each paw movement lasting 1.5 seconds or longer was counted as one scratch reflex, followed by statistical analysis to determine statistical significance between the values before and after drug application.

Setting [5] is: concentration 0.01% in 100% ethanol, 0.2 ml/mouse on dorsal skin.
The mark [6] stands for this setting: concentration 0.1% in 100% ethanol, 0.2 ml/mouse on dorsal skin.
The mark [7] stands for this setting: external application of 0.1%, same extent as dexamethasone and tacrolimus.

Counter-ions that a name gives are not always drawn.

In the case of `CS(=O)(=O)NC(=O)CCC/C=C\C[C@H]1C(=O)C[C@@H](O)[C@@H]1/C=C/[C@@H](O)COc1ccccc1` [Sulprostone, sulprostone], in experiment [1] (setting [5]), the “% Inhibition (percent itch suppression)” value is listed as 24.0%.
In the case of `CCCC[C@H](C)C[C@H](O)/C=C/[C@H]1[C@H](O)CC(=O)[C@@H]1CCCC/C=C/C(=O)O` [Limaprost, limaprost], the “effect on dermatitis scores compared to the ethanol-treated group” value in experiment [2] is given as “significant suppressive effect”. Further, the “% Inhibition (percent itch suppression)” value was 36.2% in experiment [1] (concentration 0.001% in 100% ethanol, 0.2 ml/mouse on dorsal skin) and 79.9% in experiment [1] (setting [5]).
Turning to `C[C@@H]1C[C@H]2[C@@H]3CCC4=CC(=O)C=C[C@]4(C)[C@@]3(F)[C@@H](O)C[C@]2(C)[C@@]1(O)C(=O)CO` [Dexamethasone, dexamethasone], the “% Occurrence of scratching behavior” value in experiment [3] stood at 50 ± 9 %. The “% Inhibition (percent itch suppression)” value in experiment [1] (setting [6]) was 49.5%. In experiment [4], the “number of scratchings over 24 hours, after drug application” value was 286 ± 52.
For the compound `CCCCC[C@H](O)/C=C/[C@H]1[C@H](O)CC(=O)[C@@H]1C/C=C\CCCC(=O)O` [PGE2, prostaglandin E2], in experiment [3], the “% Occurrence of scratching behavior” value is reported as 46 ± 10 %. For the same compound, the “effect on spontaneous itch-evoked scratching behavior (in words)” value in experiment [3] (setting [7]) is given as “strongly reduced”. Also, the “% Inhibition (percent itch suppression)” value in experiment [1] (setting [6]) came out at 54.3%. Besides, the “effect on spontaneous itch-evoked scratching behavior in NC mice (in words)” value in experiment [1] (setting [7]) is given as “strongly reduced”.
In the case of `CCCCC[C@H](O)/C=C/[C@H]1C(=O)C[C@H](O)[C@@H]1C/C=C\CCCC(=O)O` [PGD2, prostaglandin D2], the “% Inhibition (percent itch suppression)” value in experiment [1] (setting [5]) amounted to 56.3%.
Regarding `CC#CCC(C)[C@H](O)/C=C/[C@@H]1[C@H]2c3cccc(CCCC(=O)O)c3O[C@H]2C[C@H]1O` (mixture of isomers) [Beraprost, beraprost], the “effect on dermatitis scores compared to the ethanol-treated group” value in experiment [2] is reported as “significant suppressive effect”. Besides, the “% Inhibition (percent itch suppression)” value in experiment [1] (setting [5]) worked out at 45.6%; in experiment [1] (setting [6]), 56.9%.
On to `CN(C)CCC(c1ccc(Cl)cc1)c1ccccn1` (centres unmarked) [Chlorpheniramine, chlorpheniramine maleate], for which, in experiment [1] (10 mg/kg, p.o.), the “% Inhibition (percent itch suppression)” value is on record as 3.56%. Further, the “suppression of spontaneous itch-evoked scratching behavior (in words)” value in experiment [1] (administered orally, 10 mg/kg) was “no suppression”.
Turning to `C=CC[C@@H]1/C=C(\C)C[C@H](C)C[C@H](OC)[C@H]2O[C@@](O)(C(=O)C(=O)N3CCCC[C@H]3C(=O)O[C@H](/C(C)=C/[C@@H]3CC[C@@H](O)[C@H](OC)C3)[C@H](C)[C@@H](O)CC1=O)[C@H](C)C[C@@H]2OC` [Tacrolimus, tacrolimus], in experiment [3], the “% Occurrence of scratching behavior” value worked out at 45 ± 8 %. The “% Inhibition (percent itch suppression)” value in experiment [1] (setting [6]) was determined as 55.5%. The “number of scratchings over 24 hours, after drug application” value in experiment [4] was 267 ± 45.
